From ChEMBL document CHEMBL1201862, “PubChem BioAssay data set” (2004)
The source made the active and inactive calls.

Columns and labels:
[1] = Luminescence Cell-Based Dose Response HTS to Identify Inhibitors of 5'UTR Stem-Loop Driven Prion Protein mRNA Translation in H4 Neuroglioblastoma Cells. [Related pubchem assays: 1827 (Project Summary), 1813 (Primary HTS)]; format: functional
[2] = viability of uninfected HEp-2 cells – cell-based, HTS, cytotoxicity control for RSV inhibitor project, dose response (AID 2410); format: functional; conditions: human respiratory syncytial virus
[3] = alpha-synuclein stem-loop luciferase translation blockers – H4 neuroglioma cells, luminescence, confirmation (AID 1988); format: functional, cell-based
[4] = non-specific 3'UTR reporter inhibition in Clone20-Shn3RL – cell-based, Renilla luciferase, cherry-picked, counter-screen for Shn3 inhibitor project, dose response (AID 624133); format: functional
[5] = loss of viability in HepG2 cells – cell-based, CellTiter-Glo, cherry-picked, cytotoxicity control for Shn3 inhibitor project, dose response (AID 624134); format: functional
[6] = reduction of Shn3 3'UTR-driven luciferase in osteoblasts – cell-based, Clone20 osteoblasts, firefly luciferase, cherry-picked, dose response (AID 624132); format: functional;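 also: firefly luciferase luminescence from reporter carrying the Shn3 3'UTR in osteoblasts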
[7] = molecular target: Paired box protein Pax-8 (Homo sapiens, UniProt Q06710); assay: PAX8 transcriptional activity inhibition in RMG-I – RMG-I cells, luciferase, cherry-pick, dose response (AID 687027); format: functional, cell-based;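 also: luciferase reporter driven by Pax8 target thyroperoxidase promoter measured by SteadyGlo luminescence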
[8] = molecular target: T1, Ubiquitin-conjugating enzyme E2 N (Homo sapiens, UniProt P61088); format: functional;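 also: Dose-response confirmation in a TR-FRET assay detecting UBC13-driven polyubiquitin chain formation, inhibition measured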
T1 sequence (P61088 whole entry): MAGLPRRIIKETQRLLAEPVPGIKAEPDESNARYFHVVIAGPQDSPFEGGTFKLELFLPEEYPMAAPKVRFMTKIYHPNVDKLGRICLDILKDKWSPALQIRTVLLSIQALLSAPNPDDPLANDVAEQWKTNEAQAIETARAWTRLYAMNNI

[9] = system: H9c2; assay: cells; format: functional, cell-based; conditions: Rattus norvegicus, H9c2, Myocardium;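 also: confirmatory concentration-response retest of ultra-high-throughput screening hits for modulation of myocardial damage; cell death induced by hydrogen peroxide oxidative stress; compound pretreatment for 60 min then peroxide exposure for 2 h; potency is for protecting the cells against peroxide damage rather than for killing them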
[10] = molecular target: T2, Corticotropin-releasing factor receptor 2/Corticotropin-releasing factor-binding protein (Homo sapiens, UniProt P24387+Q13324); assay: Dose Response confirmation of uHTS hits for small molecule antagonists of the CRF-binding protein and CRF-R2 receptor complex.; format: functional; conditions: read-out: IC50_Mean
T2 sequence (Q13324 whole entry): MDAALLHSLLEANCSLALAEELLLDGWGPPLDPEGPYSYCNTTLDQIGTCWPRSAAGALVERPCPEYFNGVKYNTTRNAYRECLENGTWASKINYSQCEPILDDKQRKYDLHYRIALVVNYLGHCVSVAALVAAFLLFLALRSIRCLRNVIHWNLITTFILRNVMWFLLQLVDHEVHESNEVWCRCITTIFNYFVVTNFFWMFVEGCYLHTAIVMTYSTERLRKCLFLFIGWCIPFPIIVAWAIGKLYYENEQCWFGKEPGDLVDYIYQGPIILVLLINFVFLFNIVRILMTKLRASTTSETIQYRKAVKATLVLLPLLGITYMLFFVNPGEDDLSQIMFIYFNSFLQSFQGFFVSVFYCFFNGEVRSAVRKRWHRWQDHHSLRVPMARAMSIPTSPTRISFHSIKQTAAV
T2 sequence (P24387 whole entry): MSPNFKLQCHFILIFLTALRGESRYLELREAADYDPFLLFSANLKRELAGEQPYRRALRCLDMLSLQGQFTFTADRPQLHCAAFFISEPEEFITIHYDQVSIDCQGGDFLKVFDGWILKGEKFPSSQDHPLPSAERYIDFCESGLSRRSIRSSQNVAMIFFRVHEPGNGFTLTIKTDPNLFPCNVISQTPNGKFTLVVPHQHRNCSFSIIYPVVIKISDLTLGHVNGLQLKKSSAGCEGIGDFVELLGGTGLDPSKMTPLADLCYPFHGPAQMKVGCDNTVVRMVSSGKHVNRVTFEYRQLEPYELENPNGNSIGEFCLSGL

[11] = molecular target: T2, Corticotropin-releasing factor receptor 2/Corticotropin-releasing factor-binding protein; assay: activators of CRF receptor 2 with binding protein – uHTS hits, confirmation (AID 602473); format: functional; conditions: read-out: EC50_Mean
[12] = luciferase reporter signal suppression in cells – H4 neuroglioma cells, luminescence, dose response (AID 1990); format: functional, cell-based
[13] = molecular target: Cytochrome P450 2C9 (Homo sapiens, UniProt P11712)
[14] = molecular target: T3, Heat shock factor protein 1 (Mus musculus, UniProt P38532); assay: enhancement of HSF1-driven luciferase signal – cell-based, NIH3T3, luminescence, dose retest, confirmation (AID 435004); format: functional;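 also: stress induced by proteasome inhibitor MG132 added 30 min after compound; luciferase reporter driven by HSF1 response element in NIH3T3 cells; actives raise luminescence as potentiators of the MG132 stress response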
T3 sequence (P38532 whole entry): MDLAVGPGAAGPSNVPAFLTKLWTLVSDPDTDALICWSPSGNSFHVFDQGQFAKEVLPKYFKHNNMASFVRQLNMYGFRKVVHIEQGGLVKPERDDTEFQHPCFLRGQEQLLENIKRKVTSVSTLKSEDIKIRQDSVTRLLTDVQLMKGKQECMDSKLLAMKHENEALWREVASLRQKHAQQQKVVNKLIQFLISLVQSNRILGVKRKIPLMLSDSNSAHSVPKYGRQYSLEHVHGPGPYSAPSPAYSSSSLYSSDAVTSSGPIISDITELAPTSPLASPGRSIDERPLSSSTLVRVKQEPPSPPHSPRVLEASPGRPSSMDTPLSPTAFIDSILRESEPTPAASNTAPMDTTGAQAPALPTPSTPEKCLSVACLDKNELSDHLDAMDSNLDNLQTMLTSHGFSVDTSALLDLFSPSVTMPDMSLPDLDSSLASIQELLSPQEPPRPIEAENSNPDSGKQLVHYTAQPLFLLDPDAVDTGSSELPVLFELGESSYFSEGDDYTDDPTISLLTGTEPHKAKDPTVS

[15] = P. falciparum Dd2 growth inhibitors, dose response, SYBR Green, cherry-picked samples (AID 1159567); format: functional, cell-based
[16] = molecular target: Induced myeloid leukemia cell differentiation protein Mcl-1 (Homo sapiens, UniProt Q07820); format: functional
[17] = molecular target: Cytochrome P450 3A4 (Homo sapiens, UniProt P08684);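 also: CYP3A4 tested as one member of a cytochrome P450 panel screen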
Cytochrome P450 3A4, sequence (P08684 whole entry): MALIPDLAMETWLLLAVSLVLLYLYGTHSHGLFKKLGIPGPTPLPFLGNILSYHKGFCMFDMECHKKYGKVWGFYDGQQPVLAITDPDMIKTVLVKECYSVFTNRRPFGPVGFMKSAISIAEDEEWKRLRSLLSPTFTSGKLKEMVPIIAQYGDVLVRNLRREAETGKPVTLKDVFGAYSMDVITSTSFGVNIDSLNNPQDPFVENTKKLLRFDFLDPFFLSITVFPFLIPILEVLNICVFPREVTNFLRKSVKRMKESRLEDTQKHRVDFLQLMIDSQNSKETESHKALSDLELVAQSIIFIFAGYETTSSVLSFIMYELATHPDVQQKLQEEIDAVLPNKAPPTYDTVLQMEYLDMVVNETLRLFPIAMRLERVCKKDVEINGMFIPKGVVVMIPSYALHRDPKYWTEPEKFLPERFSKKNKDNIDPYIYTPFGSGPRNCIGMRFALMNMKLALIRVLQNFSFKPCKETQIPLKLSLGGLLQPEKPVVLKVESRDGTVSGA

Induced myeloid leukemia cell differentiation protein Mcl-1, sequence (Q07820 whole entry): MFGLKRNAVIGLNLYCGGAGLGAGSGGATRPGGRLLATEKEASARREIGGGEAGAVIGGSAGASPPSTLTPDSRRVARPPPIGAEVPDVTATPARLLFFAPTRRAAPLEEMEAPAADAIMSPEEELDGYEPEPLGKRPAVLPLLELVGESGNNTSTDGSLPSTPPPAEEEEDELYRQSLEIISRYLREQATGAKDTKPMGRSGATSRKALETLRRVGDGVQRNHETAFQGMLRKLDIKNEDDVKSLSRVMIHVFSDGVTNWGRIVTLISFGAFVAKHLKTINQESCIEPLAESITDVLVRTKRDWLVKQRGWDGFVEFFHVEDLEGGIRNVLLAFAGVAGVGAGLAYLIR
Cytochrome P450 2C9, sequence (P11712 whole entry): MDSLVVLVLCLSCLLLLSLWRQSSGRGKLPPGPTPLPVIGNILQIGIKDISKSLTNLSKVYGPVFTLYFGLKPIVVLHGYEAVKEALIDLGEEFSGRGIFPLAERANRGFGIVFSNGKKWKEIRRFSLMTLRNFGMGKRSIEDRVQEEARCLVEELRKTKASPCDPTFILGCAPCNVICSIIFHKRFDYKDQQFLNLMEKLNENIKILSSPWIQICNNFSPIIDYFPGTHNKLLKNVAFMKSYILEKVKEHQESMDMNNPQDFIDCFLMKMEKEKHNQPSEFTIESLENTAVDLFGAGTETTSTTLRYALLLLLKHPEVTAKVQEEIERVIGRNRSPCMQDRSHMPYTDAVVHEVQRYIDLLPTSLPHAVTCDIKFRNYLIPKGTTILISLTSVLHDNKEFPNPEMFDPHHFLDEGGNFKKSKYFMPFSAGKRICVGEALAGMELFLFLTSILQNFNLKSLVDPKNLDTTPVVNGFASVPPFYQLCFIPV
Paired box protein Pax-8, sequence (Q06710 whole entry): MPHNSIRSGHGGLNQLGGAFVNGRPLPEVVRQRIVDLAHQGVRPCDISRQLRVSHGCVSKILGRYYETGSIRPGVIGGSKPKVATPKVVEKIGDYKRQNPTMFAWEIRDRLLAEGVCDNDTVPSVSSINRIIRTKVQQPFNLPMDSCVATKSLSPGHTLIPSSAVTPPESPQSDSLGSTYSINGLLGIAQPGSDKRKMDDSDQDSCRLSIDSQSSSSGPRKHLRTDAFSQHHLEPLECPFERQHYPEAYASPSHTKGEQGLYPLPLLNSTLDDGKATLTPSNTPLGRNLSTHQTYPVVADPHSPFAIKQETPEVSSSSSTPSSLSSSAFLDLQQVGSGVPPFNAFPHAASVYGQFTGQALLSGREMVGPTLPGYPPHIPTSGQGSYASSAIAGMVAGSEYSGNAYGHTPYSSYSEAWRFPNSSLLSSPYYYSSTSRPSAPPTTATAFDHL

For Cc1ccc2nc(-c3ccc(NC(=O)CCS(=O)(=O)c4ccccc4)cc3)sc2c1, the EC50 [1] was 6.83 µM (active), the CC50 [2] was 37.3 µM (active) and the EC50 [3] was 6.26 µM (active).
For CN1CCN(S(=O)(=O)c2ccc(N(C)Cc3ccc(C(F)(F)F)cc3)c([N+](=O)[O-])c2)CC1, the AC50 [4] was 17.6 µM (active), the AC50 [5] was 45.9 µM (active) and the AC50 [6] was 6.3 µM (active).
In the case of Cn1nnnc1Sc1ncnc2scc(-c3ccccc3Cl)c12, the AC50 [7] is reported as 2.42 µM (active).
In the case of Cc1c(Br)c(C(=O)NNC(=O)c2ccc(C(C)(C)C)cc2)nn1C, the IC50 [8] is reported as > 20 µM (inactive).
In the case of Cc1c(O)c(CN2CCCCC2)cc2c1oc(=O)c1ccccc12, the IC50 [9] is reported as 6.18 µM (active), the IC50 [10] is reported as > 47.1 µM (inactive) and the EC50 [11] is reported as > 53 µM (inactive).
With Cc1ccc(OCCCC(=O)Nc2ccc(S(=O)(=O)N3CCOCC3)cc2)cc1 the IC50 [8] was > 20 µM (inactive).
In the case of CC[C@@H](C)[C@@H]1CN([C@@H](C)CN2CCC[C@H]2CN2C(N)=NC[C@H]2CC(C)C)C(=N)N1CCc1ccc(Cl)c(Cl)c1, the IC50 [8] is reported as > 20 µM (inactive).
In the case of Cn1c(C(=O)NCCOc2ccccc2Cl)cc(=O)n(C)c1=O, the EC50 [12] is reported as > 120 µM (not active), the EC50 [1] is reported as > 120 µM (not active) and the EC50 [3] is reported as > 120 µM (not active).
With Cc1ccc2nc(O)c(N=C(N)S)nc2c1 the IC50 [8] was > 20 µM (inactive) and the AC50 [13] was 10 µM (inconclusive).
With COc1ccc(C(=O)Cn2c(C(=O)/C=C/c3ccccc3)nc3ccccc32)cc1 the AC50 [5] was 59.1 µM (active), the EC50 [14] was 4.59 µM (active) and the AC50 [6] was 4.47 µM (active).
For CCCN(C)C[C@H]1Oc2cc(C#Cc3cccnc3)ccc2S(=O)(=O)N([C@H](C)CO)C[C@H]1C, the AC50 [15] was 3.19 µM (active).
With Cc1cccc(S(=O)(=O)N2C[C@@H]3N[C@H](C2)[C@@H]3c2ccc(-c3cccnc3)cc2)c1 the AC50 [15] was 6 µM (active).
In the case of Cc1ccc(-c2ccc([C@H]3[C@@H](CO)N4C(=O)CN(C(=O)Nc5cccc(F)c5)C[C@H]34)cc2)cc1, the AC50 [15] is reported as 6.09 µM (active).
In the case of CN(C)C(CNC(=O)c1coc2ccccc2c1=O)c1ccccc1 (stereo unspecified), the IC50 [8] is reported as > 20 µM (inactive).
With CCOC(=O)C1(CCOc2ccccc2)CCN(Cc2ccc(OC)c(COC)c2)CC1 the AC50 [4] was 20.5 µM (active), the AC50 [5] was 32.5 µM (active) and the AC50 [6] was 3.87 µM (active).
In the case of Cc1ccc(OCCCC(=O)Nc2ccccc2C(F)(F)F)cc1, the IC50 [16] is reported as > 54 µM (not active) and the AC50 [17] is reported as 15.8 µM (inconclusive).
In the case of NC1=NC[C@H](Cc2ccccc2)N1CCc1cc(C(F)(F)F)cc(C(F)(F)F)c1, the IC50 [8] is reported as > 20 µM (inactive).
For COC(=O)c1[nH]c2ccc(C)cc2c1NC(=O)C1=COCCO1, the EC50 [12] was > 120 µM (not active), the EC50 [1] was > 120 µM (not active) and the EC50 [3] was > 120 µM (not active).
In the case of COc1ccc(-c2ccc(Nc3ccc(S(=O)(=O)N4CCCC4)cc3)nn2)cc1OC, the IC50 [9] is reported as > 79 µM (inactive), the AC50 [4] is reported as 27.6 µM (active) and the AC50 [6] is reported as 20.1 µM (active).
For COc1cccc(/C=C2/NC(=O)NC2=O)c1OCC(=O)Nc1ccccc1, the EC50 [12] was > 120 µM (not active), the EC50 [1] was > 120 µM (not active) and the EC50 [3] was > 120 µM (not active).
For Cn1c(=O)cc(OCCCC(=O)NCCN2CCN(c3ccccc3F)CC2)c2ccccc21, the IC50 [8] was > 20 µM (inactive), the IC50 [10] was > 47.1 µM (inactive) and the EC50 [11] was > 53 µM (inactive).
For c1ccc2c(CCN3CCNC[C@H]3Cc3cccc4ccccc34)cccc2c1, the IC50 [8] was > 20 µM (inactive).
In the case of NS(=O)(=O)c1ccc(CCNC(=O)c2ccc([N+](=O)[O-])cc2[N+](=O)[O-])cc1, the EC50 [12] is reported as > 120 µM (not active), the EC50 [1] is reported as > 120 µM (not active) and the EC50 [3] is reported as > 120 µM (not active).
For COC(=O)c1ccc(CSc2nc(-c3ccccc3)cs2)o1, the IC50 [16] was 3.49 µM (not active).
With O=C(COC(=O)Cn1cnc2ccccc21)Nc1ccc2c(c1)C(=O)c1ccccc1C2=O the IC50 [16] was 6.69 µM (active).
With CCS(=O)(=O)N1CCC2(CC1)CN(Cc1ccc3c(c1)OCO3)[C@H](CO)c1[nH]c3cc(OC)ccc3c12 the AC50 [15] was 5.03 µM (active).
In the case of COc1ccc(C(c2c(O)cc(C)oc2=O)c2c(O)cc(C)oc2=O)cc1, the IC50 [16] is reported as 1.45 µM (not active).
